Experiment [1] has as its system MRC5. As to the kind of experiment: Compound was tested for inhibition against human cytomegalovirus (HCMV) in MRC-5 cells. In kind it is functional, cell-based.
For experiment [2], the system named is MRC5. Nature of the experiment: Compound was tested for inhibition against Varicella zoster virus(VZV) infected MRC5 cells. To be noted: Homo sapiens. In kind it is functional, cell-based.
The subject of experiment [3] is Vero. As to the kind of experiment: Compound was tested for inhibition against herpes simplex virus (HSV-2) infected vero cells. In kind it is functional, cell-based. The settings on record: Chlorocebus sabaeus.
For experiment [4], the system named is Vero. As to the kind of experiment: Compound was tested for cytotoxic activity uninfected vero cells. In kind it is functional. To be noted: Chlorocebus sabaeus.
Experiment [5] concerns MRC5. As to the kind of experiment: Compound was tested for inhibition against varicella zoster virus(VZV) infected MRC5 cells. The settings on record: Homo sapiens.

As a reminder, the EC50 is the concentration that produces a half-maximal response. Usually CC50 stands for the concentration that lowers cell viability or growth by half. High values mean lower toxicity to the cells, low ones greater toxicity to the cells.

For the compound `COC(=O)C(C)NP(=O)(OCCOCn1cnc2c(O)nc(N)nc21)Oc1ccccc1` (stereo not drawn), the EC50 in the experiment on MRC5 [1] was 12 µM; with MRC5 [2] it was 16 µM; with Vero [3], above 100 µM. The compound also yielded a CC50 in the experiment with Vero [4] above 5 µM.

In the case of `Nc1nc2c(ncn2COCCO)c(=O)[nH]1` [ACYCLOVIR], the EC50 worked out at 50 µM in the experiment with MRC5 [1], 5 µM in the experiment with MRC5 [5] and 3 µM with Vero [3]. Further, the 50% cytotoxic concentration (CC50) in the experiment on Vero [4] is above 5 µM.

Source of the values: ChEMBL document CHEMBL1133316, “Synthesis and antiviral activity of acyclovir-5'-(phenyl methoxy alaninyl) phosphate as a possible membrane-soluble nucleotide prodrug” (Bioorg Med Chem Lett, 2000).
